Measurements as given in patent US9637787B2, “Culture based screening assay and methods of use thereof to identify agents which modulate tumor development, invasion and differentiation” (The Trustees of the University of Pennsylvania, priority 2007, dated 2017).
pIC50: −log10 of the molar value.

Columns and labels:
periostin = assay: Western blot of periostin expression in cell lysates; format: cell-based, human; conditions: EPC2-hTERT-EGFR-p53^R175H cells, 24 h treatment; EGF 10 ng/μl, AG1478 1 μM, 5-iminodaunorubicin 3 μM
Method: FIG. 24: Periostin expression is dependent upon EGFR signaling and mutant p53 activation (A) Western blot analysis of periostin (90 kDa) in EPC2-hTERT-EGFR-p53^R175H, EPC2-hTERT-puro-neo, EPC2-hTERT-EGFR-neo and EPC2-hTERT-neo-p53^R175H cells. (B) Western blot analysis of periostin expression in EPC2-hTERT-EGFR-p53^R175H cell lysates after 24 h treatment with EGF (10 ng/μl), EGFR inhibitor AG1478 (1 μM) and 5-iminodaunorubicin (3 μM). Immunoblotting for total EGFR and phosphorylated EGFR to confirm inhibition of EGFR as well as p21 to indicate restoration of wildtype p53 signaling. β-actin was used as a loading control. Densitometry ratios of periostin/β-actin were calculated and recorded.
(§1) For Western blot analysis, cells were lysed in lysis buffer (10 mM Tris-HCl, pH 7.4, 150 mM NaCl, 1% Nonidet P-40, 0.1% sodium deoxycholate, 0.1% SDS, 1 mM EDTA, 2 mM sodium orthovanadate and a protease inhibitor tablet, Roche Molecular Biochemicals, Indianapolis, Ind.). Protein concentration was determined by the Bio-Rad protein assay (Bio-Rad, Hercules, Calif.). 15 μg of protein were run on a 4-12% SDS-PAGE gel (Invitrogen™) and transferred to a polyvinylidene difluoride membrane (Immobilon-P®, Millipore, Bedford, Mass.). Membranes were blocked in 5% nonfat milk (Bio-Rad) in TBS-T (10 mM Tris, 150 mM NaCl, pH 8.0 and 0.1% Tween® 20) for 1 h at room temperature. Membranes were then probed with primary antibody diluted in 5% milk in TBS-T overnight at 4° C., washed with TBS-T and incubated with anti-mouse or anti-rabbit horseradish peroxidase-conjugated secondary antibodies (GE Biotech, 1:3000 in TBS-T) for 1 h at room temperature and washed in TBS-T. The signal was visualized using an enhanced chemiluminescence solution (ECL Plus, Amersham™ Pharmacia Biotech) and exposed to Blue Lite Autorad film (ISC-BioExpress, Kaysville, Utah). To confirm secreted periostin expression, conditioned media was collected and protein concentration was determined by Bio-Rad protein assay (Bio-Rad) and Western blot analysis was performed as described above.

Met = Met phosphorylation in EPC-hTERT-EGFR-p53^R175H cells; format: cell-based, human; conditions: data not shown
Method: as §1

MMP-1 = target: T1, MMP-1 (Homo sapiens, UniProt P03956); conditions: cited from earlier work
T1 sequence (P03956 100-469): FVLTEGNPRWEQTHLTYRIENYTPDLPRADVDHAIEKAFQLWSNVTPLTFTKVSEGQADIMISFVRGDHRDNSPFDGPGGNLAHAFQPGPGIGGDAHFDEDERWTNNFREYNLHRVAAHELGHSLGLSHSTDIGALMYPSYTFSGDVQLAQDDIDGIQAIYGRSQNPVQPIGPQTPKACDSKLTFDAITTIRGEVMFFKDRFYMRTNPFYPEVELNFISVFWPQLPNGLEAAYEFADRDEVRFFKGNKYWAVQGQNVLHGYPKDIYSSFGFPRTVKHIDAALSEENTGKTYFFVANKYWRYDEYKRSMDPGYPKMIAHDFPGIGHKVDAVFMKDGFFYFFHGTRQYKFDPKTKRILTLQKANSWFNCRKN

[1] = test system: EPC-hTERT-EGFR-p53^R175H cells; assay: matrix invasion in 3D organotypic culture above FEF3 fetal esophageal fibroblast matrices; format: cell-based, human; conditions: 100 nM
Method: (§2) (A) Fluorescence measurements representing invading cells on the bottom filters of a Matrigel®-coated Boyden chamber where HGF was added as the chemoattractant of EPC-hTERT-EGFR-p53^R175H cells seeded atop the filter. (B) Level of secreted HGF in conditioned media from FEF3 fibroblasts±HGF siRNA set up in organotypic culture and detected by ELISA. (C) H&E sections of organotypic cultures of FEF3 fibroblasts±HGF siRNA seeded into the matrix with EPC-hTERT-EGFR-p53^R175H grown above (scale bar=100 μm). (D) Quantification of invasion in entire organotypic culture imaged in (C). Error bars represent ±SEM and * indicates p values ≦0.05 when compared to the control.
(A) Western blot of EPC-hTERT-EGFR-p53^R175HshMet or EPC-hTERT-EGFR-p53^R175H shScramble cells (two independent lines of each genotype) to determine extent of Met knockdown of total protein and activation state. (B) H&E sections of organotypic culture of EPC-hTERT-EGFR-p53^R175H-shMet or EPC-hTERT-EGFRp53^R175H-shScramble cells seeded above matrices containing FEF3 fetal esophageal fibroblasts. (C) H&E sections of organotypic cultures of EPC-hTERT-EGFR-p53^R175H cells seeded above FEF3 matrices treated with DMSO vehicle (days 7-15) or 100 nM PHA665752 (days 7-15 or day 11-15) as indicated. […]

[2] = test system: EPC-hTERT-EGFR-p53^R175H cells; assay: Matrigel-coated Boyden chamber invasion assay with chemoattractant; format: cell-based, human; conditions: HGF added as chemoattractant
Method: as §2
For migration assays, Boyden chambers (8 μm pore size, FluoroBlok-HTS inserts, BD Biosciences) were used. For invasion assays, insert-plates (8 μm pore size, FluoroBlock, 24 well insert) coated with BD Matrigel® matrix were used. Inserts were placed in a 24-well plate containing Full KSFM medium with serum to stimulate cell migration and invasion. 5×10^4 cells in serum-free medium were placed in each insert. Twenty-four hours later, migrating or invading cells were labeled with 4 μg/ml Calcein AM dye (Invitrogen™) in HANKS buffer for 1 hour. The labeled cells were then read on a Synergy HT multi-detection microplate reader (BIOTEK®, Woburn, Mass.) at 485 nm excitation and 528 nm detection. […]

## COc1cccc2c1C(=N)c1c(O)c3c(c(O)c1C2=O)C[C@@](O)(C(C)=O)C[C@@H]3O[C@H]1C[C@H](N)[C@H](O)[C@H](C)O1 [5-iminodaunorubicin]
periostin
  periostin protein expression: decreased

## COc1cc2ncnc(Nc3cccc(Cl)c3)c2cc1OC [AG1478]
periostin
  periostin protein expression: decreased
Met
  Met phosphorylation: nor was Met phosphorylation inhibited

## CCN(CC)Cc1cc(C)c(N(Cc2ccccc2)S(=O)(=O)c2ccc(OC)cc2)c(C(=O)NO)c1 [MMP-9 inhibitor]
MMP-1
  pIC50: 5.98

## Cc1[nH]c(/C=C2\C(=O)Nc3ccc(S(=O)(=O)Cc4c(Cl)cccc4Cl)cc32)c(C)c1C(=O)N1CCC[C@@H]1CN1CCCC1 [PHA665752]
[1]; treated for seven days following epithelial cell seeding (days 7-15)
  invasion of EPC-hTERT-EGFR-p53^R175H cells in organotypic culture: inhibited invasion
[1]; treated for the final four days when invasion occurs (day 11-15)
  invasion of EPC-hTERT-EGFR-p53^R175H cells in organotypic culture: inhibited invasion

## EGF: epidermal growth factor used to stimulate EGFR
periostin
  periostin protein expression: increased periostin protein expression

## HGF: Recombinant human HGF purchased from R&D Systems
[2]
  levels of invading cells: significantly increased levels of invading
